According to ChEMBL document CHEMBL2062415, “Steroids from Commiphora mukul display antiproliferative effect against human prostate cancer PC3 cells via induction of apoptosis” (Bioorg Med Chem Lett, 2012):
Activity calls are given as the source filed them. The calls are words filed in the database; no cut-off is given here.

Experiments:
MCF7 [1] = assay: Cytotoxicity against human MCF7 cells after 24 hrs by MTT assay; format: functional, cell-based; conditions: MCF7, 24 h
PC-3 [2] = assay: Inhibition of cyclin B1 protein expression in human PC3 cells at 20 uM after 48 hrs by Western blot analysis; format: functional, cell-based
MCF7 [3] = assay: Induction of apoptosis in human MCF7 cells assessed as late apoptotic cells at 20 uM after 48 hrs by annexinV/propidium iodide staining-based FITC analysis (reference value: 3.57%); format: functional
K562 [4] = assay: Induction of apoptosis in human K562 cells assessed as accumulation at G0/G1 phase at 10 uM after 48 hrs by propidium iodide staining-based flow cytometric analysis (reference value: 38.61%); format: functional
K562 [5] = assay: Induction of apoptosis in human K562 cells assessed as late apoptotic cells at 1 uM after 48 hrs by annexinV/propidium iodide staining-based FITC analysis (reference value: 2.55%); format: functional
PC-3 [6] = assay: Induction of apoptosis in human PC3 cells assessed as necrotic cells at 20 uM after 48 hrs by annexinV/propidium iodide staining-based FITC analysis relative to control; format: functional
MCF7 [7] = assay: Induction of apoptosis in human MCF7 cells assessed as necrotic cells at 5 uM after 48 hrs by annexinV/propidium iodide staining-based FITC analysis (reference value: 8.28%); format: functional
PC-3 [8] = assay: Cell cycle arrest in human PC3 cells assessed as accumulation at G0/G1 phase at 10 uM after 48 hrs by propidium iodide staining-based flow cytometric analysis relative to control; format: functional
DU-145 = assay: Induction of apoptosis in human DU145 cells assessed as late apoptotic cells at 10 uM after 48 hrs by annexinV/propidium iodide staining-based FITC analysis (reference value: 2.78%); format: functional
PC-3 [9] = assay: Induction of apoptosis in human PC3 cells assessed as early apoptotic cells after 48 hrs by annexinV/propidium iodide staining-based FITC analysis relative to control; format: functional, cell-based
MCF7 [10] = assay: Induction of apoptosis in human MCF7 cells assessed as necrotic cells at 10 uM after 48 hrs by annexinV/propidium iodide staining-based FITC analysis (reference value: 8.28%); format: functional
K562 [11] = assay: Induction of apoptosis in human K562 cells assessed as late apoptotic cells at 5 uM after 48 hrs by annexinV/propidium iodide staining-based FITC analysis (reference value: 2.55%); format: functional
K562 [12] = assay: Induction of apoptosis in human K562 cells assessed as accumulation at S phase at 10 uM after 48 hrs by propidium iodide staining-based flow cytometric analysis (reference value: 45.67%); format: functional
MCF7 [13] = assay: Induction of apoptosis in human MCF7 cells assessed as accumulation at G2/M phase at 10 uM after 48 hrs by propidium iodide staining-based flow cytometric analysis (reference value: 9.55%); format: functional

For `CC[C@H](/C=C/[C@@H](C)[C@H]1CC[C@H]2[C@H]3[C@H]([C@H](O)C[C@]12C)[C@@]1(C)CC[C@H](O)CC1=C[C@H]3O)C(C)C`, which IC50 (MCF7 [1]) is on record?
The IC50 was 9.04 µM.

What about the inhibition (PC-3 [2]) of the same compound?
Its inhibition is “Active”.

What about the Activity (MCF7 [3]) of the same compound?
Its Activity is 6.76%.

And the Activity (K562 [4])?
The Activity was 39.64%.

And the Activity (K562 [5])?
The Activity was 1.79%.

And the Activity (PC-3 [6])?
The Activity was 2.79%.

And the Activity (MCF7 [7])?
The Activity was 3.47%.

What about the Activity (PC-3 [8]) of the same compound?
Its Activity is 52.69%.

What about the Activity (DU-145) of the same compound?
The Activity was 2.48%.

And the Activity (PC-3 [9])?
The Activity was “Dose-dependent effect”.

What about the Activity (MCF7 [10]) of the same compound?
Its Activity is 4.47%.

And the Activity (K562 [11])?
The Activity was 1.91%.

And the Activity (K562 [12])?
The Activity was 48.25%.

And the Activity (MCF7 [13])?
The Activity was 10.03%.
